The assay concerns the target T1, β-catenin/Tcf protein-protein interaction (Homo sapiens, UniProt P35222).
T1 construct: Wild-type β-catenin (residues 138-781) were cloned into a pET-28b vector; 6×histidine (C); made in house; host or cells: E. coli BL21 DE3
T1 sequence (P35222 138-781): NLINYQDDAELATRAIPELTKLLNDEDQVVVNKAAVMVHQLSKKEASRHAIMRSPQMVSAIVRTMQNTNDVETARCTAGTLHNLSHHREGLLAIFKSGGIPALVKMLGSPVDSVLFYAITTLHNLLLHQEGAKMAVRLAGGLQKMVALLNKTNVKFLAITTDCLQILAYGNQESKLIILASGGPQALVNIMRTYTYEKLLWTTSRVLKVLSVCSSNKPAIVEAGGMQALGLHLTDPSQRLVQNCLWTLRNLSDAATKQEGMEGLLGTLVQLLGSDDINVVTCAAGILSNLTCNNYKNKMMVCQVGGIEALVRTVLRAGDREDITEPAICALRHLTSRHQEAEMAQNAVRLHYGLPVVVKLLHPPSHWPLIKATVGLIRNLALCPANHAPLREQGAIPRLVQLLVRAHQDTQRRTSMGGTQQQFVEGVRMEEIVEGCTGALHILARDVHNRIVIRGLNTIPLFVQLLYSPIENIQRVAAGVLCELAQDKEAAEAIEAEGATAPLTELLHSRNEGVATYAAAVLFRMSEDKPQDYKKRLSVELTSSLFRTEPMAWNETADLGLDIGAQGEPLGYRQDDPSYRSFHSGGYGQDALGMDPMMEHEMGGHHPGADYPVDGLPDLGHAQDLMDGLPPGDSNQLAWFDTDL
The assay can be described thus: FP competitive inhibition assay. The format is binding. The gist of the method:
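His-tagged human β-catenin (residues 138-781, E. coli-expressed) at 10 nM with 2.5 nM fluorescein-labeled Tcf4 (7-51) in PBS-type buffer with bovine γ-globulin and 0.01% Triton X-100. Compounds added, 1.5 h at 4 °C, 1% DMSO, before fluorescence polarization read. IC50 by nonlinear fit; Ki derived from IC50.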

Where two headings read alike, the source gives them in different places.

The term Ki denotes a measure of affinity in units of concentration, obtained from inhibition or displacement. In the case of `O=C(O)c1ccc2c(c1)c(CCc1ccc(Cl)cc1)c(CCc1nc3ccccc3s1)n2CCc1nn[nH]n1` [Compound 27, 1-(2-(2H-tetrazol-5-yl)ethyl)-2-(2-(benzo[d]thiazol-2-yl)ethyl)-3-(4-chlorophenethyl)-1H-indole-5-carboxylic acid], the Ki is, setting by setting: (Assay 1, mean ± SD (n = 3), read-out: Ki ± SD, Assay 1) 3.3 ± 0.64 µM; (Assay 2, mean ± SD (n = 3), read-out: Ki ± SD, Assay 2) 1.3 ± 0.38 µM; (Assay 3, mean ± SD (n = 3), read-out: Ki ± SD, Assay 3) 5.6 ± 1.8 µM.
